These results are taken from patent US12264173B2 (GILEAD SCIENCES, INC., priority 2020, dated 2025).

Where two headings read alike, the source gives them in different places.

What all share (assay type): cell-based
The test system of one test is HRV16. Description: HRV16 HeLa EC50 (cytopathic effect in H1-HeLa cells). The gist of the method: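 Read-out is luminescent cell viability (CellTiter-Glo) after 96 h of infection at 33 °C, scaled between uninfected and infected-untreated wells. Before infection with titrated virus, compounds went onto H1-HeLa cells as triplicate 3-fold dilution series.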
(In general: Protection from cytopathic effect is a common read-out in antiviral testing.)

Test [1] deals with Dengue 2, New Guinea strain (NGC). As to the kind of experiment: DENV moDC EC50 (qPCR in human monocyte-derived dendritic cells). To be noted: Table 3, human moDCs, 48 hours. Here is the method:
Human monocyte-derived dendritic cells (moDCs) were derived from CD14+ monocytes (AllCells) cultured in Human Mo-DC Differentiation medium containing GM-CSF and IL-4 (Miltenyi Biotec). On day 7, moDCs were harvested by mechanical disruption, washed and suspended in serum-free RPMI. moDCs were infected with Vero-derived Dengue 2, New Guinea strain (NGC) at a MOI=0.1 for two hours in serum-free RPMI with gentle agitation at 37° C. Cells were washed and resuspended in 10% serum-containing RPMI (Gibco, supplemented with sodium pyruvate, NEAA, Penicillin-Streptomycin). […] were plated in triplicate in 96-well plates with compounds dispensed at graded doses (Hewlett-Packard D300 Digital Dispenser). All wells were normalized to 0.25% DMSO. At 48 hours, cells were washed with 1×PBS and all supernatants removed. Total RNA was extracted using RNEasy 96 plates (Qiagen) and used to generate first-strand cDNA using XLT cDNA 5× Supermix (QuantaBio). cDNA was used as a template in a Taqman qPCR duplex reaction specific to DENV2 viral and GAPDH gene expression. EC50 values were determined using Prism Graphpad software, with normalization to a positive control and no compound negative control wells.
Background: Quantitative PCR measures a nucleic acid by following its amplification.

In another test the test system is HCV Rep 2A. Description: HCV Rep 2A EC50 (replicon luciferase). To be noted: Table 4, replicon cells, 3 days, read-out: HCV Rep 2A EC50. Here is the method:
(§1) Compounds were serially diluted in ten steps of 1:3 dilutions in 384-well plates. All serial dilutions were performed in four replicates per compound within the same 384-well plate. […] To each well of a black polystyrene 384-well plate (Greiner Bio-one, Monroe, NC), 90 μL of cell culture medium (without Geneticin) containing 2000 suspended HCV replicon cells was added with a Biotek μFlow workstation. For compound transfer into cell culture plates, 0.4 μL of compound solution from the compound serial dilution plate was transferred to the cell culture plate on a Biomek FX workstation. The DMSO concentration in the final assay wells was 0.44%. The plates were incubated for 3 days at 37° C. with 5% CO2 and 85% humidity. The HCV replicon assay was a multiplex assay, able to assess both cytotoxicity and antireplicon activity from the same well. The CC50 assay was performed first. The media in the 384-well cell culture plate was aspirated, and the wells were washed four times with 100 μL of PBS each, using a Biotek ELX405 plate washer. A volume of 50 μL of a solution containing 400 nM calcein AM (Anaspec, Fremont, CA) in 1×PBS was added to each well of the plate with a Biotek μFlow workstation. The plate was incubated for 30 min at room temperature before the fluorescence signal (excitation 490 nm, emission 520 nm) was measured with a Perkin-Elmer Envision plate reader. The EC50 assay was performed in the same wells as the CC50 assay. The calcein-PBS solution in the 384-well cell culture plate was aspirated with a Biotek ELX405 plate washer. A volume of 20 μL of Dual-Glo luciferase buffer (Promega, Madison, WI) was added to each well of the plate with a Biotek μFlow Workstation. The plate was incubated for 10 min at room temperature. A volume of 20 μL of a solution containing a 1:100 mixture of Dual-Glo Stop & Glo substrate (Promega, Madison, WI) and Dual-Glo Stop & Glo buffer (Promega, Madison, WI) was added to each well of the plate with a Biotek μFlow Workstation. The plate was then incubated at room temperature for 10 min before the luminescence signal was measured with a Perkin-Elmer Envision Plate Reader.
(In antiviral work, replicon cells carry a viral genome segment that copies itself.)

Another test has as its system HCV Rep 1B. Description: HCV Rep 1B EC50 (replicon luciferase). To be noted: Table 4, replicon cells, 3 days, read-out: HCV Rep 1B EC50. Here is the method:
as §1

[2] abbreviates: 96 h, Table 3, H1-HeLa cells, 96 h, read-out: HRV16 HeLa EC50.
Where [3] appears, read: Table 3, H1-HeLa cells, 96 h, read-out: HRV16 HeLa EC50.

Usually EC50 stands for the midpoint of the concentration-response curve.

As to `CCC(=O)O[C@H]1[C@H](c2ccc3c(N)ncnn23)O[C@](C#N)(CO[P@@](=O)(N[C@@H](C)C(=O)OC)Oc2ccccc2)[C@H]1OC(=O)CC` (single isomer, unassigned) [Example 143], the EC50 in the test on HRV16 (setting [2]) was determined as 0.221 µM; in test [1] (Dengue virus, Dendritic cell) it was 0.164 µM.

For the compound `CCOC(=O)[C@H](C)N[P@](=O)(OC[C@@]1(C#N)O[C@@H](c2ccc3c(N)ncnn23)[C@H](OC(=O)C(C)C)[C@@H]1OC(=O)C(C)C)Oc1ccccc1` (single isomer, unassigned) [Example 144], the EC50 is 1.27 µM in the test with HCV Rep 2A (Hepatitis C virus, 72 h); 0.093 µM in the test with HRV16 (setting [2]); 0.092 µM in the test with HRV16 (HeLa, read-out: HRV16 HeLa EC50, Table 5 comparative activity, 2',3'-OH vs -OC(O)iPr); 0.442 µM with HCV Rep 1B (Hepatitis C virus, 72 h); 0.031 µM in test [1] (Dengue virus, Dendritic cell).

For the compound `CC(C)C(=O)O[C@H]1[C@H](c2ccc3c(N)ncnn23)O[C@](C#N)(COP(=O)(N[C@@H](C)C(=O)OCC2CCOCC2)Oc2ccccc2)[C@H]1OC(=O)C(C)C` (single isomer, unassigned) [Example 183], the EC50 turned out to be 0.088 µM with HRV16 (setting [3]) and 0.142 µM in test [1].

`CC(C)C(=O)O[C@H]1[C@H](c2ccc3c(N)ncnn23)O[C@](C#N)(COP(=O)(N[C@@H](C)C(=O)OC2COC2)Oc2ccccc2)[C@H]1OC(=O)C(C)C` (single isomer, unassigned) [Example 186]: the concentration giving a half-maximal response (EC50) was 0.836 µM on HCV Rep 2A, 0.044 µM in the test on HRV16 (setting [3]) and 0.306 µM at HCV Rep 1B.

As to `CC(C)C(=O)O[C@H]1[C@H](c2ccc3c(N)ncnn23)O[C@](C#N)(COP(=O)(N[C@@H](C)C(=O)OCC2COC2)Oc2ccccc2)[C@H]1OC(=O)C(C)C` (single isomer, unassigned) [Example 201], the concentration giving a half-maximal response (EC50) with HRV16 (setting [3]) amounted to 0.177 µM; in test [1], 0.057 µM.

With `CCC(CC)COC(=O)[C@H](C)N[P@](=O)(OC[C@@]1(C#N)O[C@@H](c2ccc3c(N)ncnn23)C(OC(=O)C(C)C)[C@@H]1OC(=O)C(C)C)Oc1ccccc1` (stereo in doubt) [Example 86, (2R,3S,4R,5S)-5-(4-aminopyrrolo[2,1-f][1,2,4]triazin-7-yl)-2-cyano-2-((((S)-(((S)-1-(2-ethylbutoxy)-1-oxopropan-2-yl)amino)(phenoxy)phosphoryl)oxy)methyl) tetrahydrofuran-3,4-diyl bis(2-methylpropanoate)], the EC50 was determined as 1.48 µM in the test on HCV Rep 2A (Hepatitis C virus, 72 h); 0.192 µM with HRV16 (setting [2]); 0.929 µM with HCV Rep 1B (Hepatitis C virus, 72 h); 0.239 µM in test [1] (Dengue virus, Dendritic cell).

As for `CC(C)C(=O)O[C@H]1[C@H](c2ccc3c(N)ncnn23)O[C@](C#N)(CO[P@@](=O)(N[C@@H](C)C(=O)OC2CCCCC2)Oc2ccccc2)[C@H]1OC(=O)C(C)C` [Example 77, (2R,3S,4S,5S)-5-(4-aminopyrrolo[2,1-f][1,2,4]triazin-7-yl)-2-cyano-2-((((S)-(((S)-1-(cyclohexyloxy)-1-oxopropan-2-yl)amino)(phenoxy)phosphoryl)oxy)methyl) tetrahydrofuran-3,4-diyl bis(2-methylpropanoate)], the EC50 turned out to be 0.936 µM in the test with HCV Rep 2A (Hepatitis C virus, 72 h); 0.152 µM in the test on HRV16 (setting [2]); 0.608 µM in the test with HCV Rep 1B (Hepatitis C virus, 72 h); 0.185 µM in test [1] (Dengue virus, Dendritic cell).

On to `CCC(=O)O[C@H]1[C@H](c2ccc3c(N)ncnn23)O[C@](C#N)(CO[P@@](=O)(N[C@@H](C)C(=O)OCC2CC2)Oc2ccccc2)[C@H]1OC(=O)CC` [Example 99], for which the EC50 on HCV Rep 2A came to 0.599 µM; with HRV16 (setting [3]), 0.116 µM; on HCV Rep 1B it was 0.313 µM.

Regarding `COC(=O)[C@H](C)N[P@](=O)(OC[C@@]1(C#N)O[C@@H](c2ccc3c(=N)n(COP(=O)(O)O)cnn23)[C@H](OC(=O)C(C)C)[C@@H]1OC(=O)C(C)C)Oc1ccccc1` [Example 259, (2R,3S,4S,5S)-2-cyano-5-(4-imino-3-((phosphonooxy)methyl)-3,4-dihydropyrrolo[2,1-f][1,2,4]triazin-7-yl)-2-((((S)-(((S)-1-methoxy-1-oxopropan-2-yl)amino)(phenoxy)phosphoryl)oxy)methyl)tetrahydrofuran-3,4-diyl bis(2-methylpropanoate)], the EC50 in the test with HCV Rep 2A (Hepatitis C virus, 72 h) amounted to 2.08 µM; in the test on HCV Rep 1B (Hepatitis C virus, 72 h), 1.12 µM.
